Measured values as given in US20250000881A1, “TREATMENT OF TREATMENT RESISTANT […] PSILOCYBIN” (COMPASS […], priority 2021, published 2025).

Test system: adult subjects with TRD
Test: Phase 2b trial in TRD: safety, treatment emergent adverse events
Assay type: in vivo, human
Excerpt: Another objective was to evaluate the safety and tolerability of psilocybin in subjects with TRD based on AEs, changes in vital signs, and suicidal ideation/behaviour (measured using the Columbia-Suicide Severity Rating Scale [C-SSRS]) score at all visits.
Throughout the course of the study, all adverse events (AEs) were monitored and recorded and included the AE's description, start and end date, seriousness, severity, action taken, and relationship to the treatment. If AEs occurred, the first concern was the safety of the study subjects.
An AE can therefore be any unfavorable and unintended sign (including an abnormal laboratory finding, for example), symptom, or disease temporally associated with the use of a medicinal product, whether considered related to the medicinal product.
AEs were coded by Preferred Term (PT) using the Medical Dictionary for Regulatory Activities (MedDRA) classification. All reported AEs with onset or worsening after the administration of study medication were included in the analysis. The incidence of AEs was summarized by treatment group, and by severity and relationship to psilocybin. Serious AEs and AEs leading to withdrawal from the study will be tabulated.
A TEAE is defined as any AE that has an onset on or after the dose of psilocybin, or any pre-existing condition that has worsened on or after the dose of psilocybin.
The incidence of TEAEs and treatment-related AEs were summarized by maximum severity and most-related relationship to psilocybin by MedDRA primary system organ class and PT. The summary included the total number and percentage of subjects reporting an event.

## CN(C)CCc1c[nH]c2cccc(OP(=O)(O)O)c12 [COMP360, psilocybin]
25 mg (N = 79)
  TEAE Depression, participants: 4 (5.1) n (%)
  TEAE Dizziness, participants: 6 (7.6) n (%)
  TEAE Euphoric mood, participants: 4 (5.1) n (%)
  TEAE Fatigue, participants: 12 (15.2) n (%)
  TEAE Headache, participants: 27 (34.2) n (%)
  TEAE Insomnia, participants: 8 (10.1) n (%)
  TEAE Irritability, participants: 4 (5.1) n (%)
  TEAE Mood altered, participants: 7 (8.9) n (%)
  TEAE Myalgia, participants: 5 (6.3) n (%)
  TEAE Nausea, participants: 18 (22.8) n (%)
  TEAE Panic reaction, participants: 4 (5.1) n (%)
  TEAE Paraesthesia, participants: 3 (3.8) n (%)
  TEAE Suicidal ideation, participants: 5 (6.3) n (%)
  TEAE Thinking abnormal, participants: 0 n (%)
  TESAE Adjustment disorder with anxiety, participants: 1 (1.3) n (%)
  TESAE Adjustment disorder with mixed anxiety and depressed mood, participants: 1 (1.3) n (%)
  TESAE Depression, participants: 0 n (%)
  TESAE Drug withdrawal syndrome*, participants: 1 (1.3) n (%)
  TESAE Hospitalisation, participants: 0 n (%)
  TESAE Intentional self-injury, participants: 2 (2.5) n (%)
  TESAE Suicidal behaviour, participants: 3 (3.8) n (%)
  TESAE Suicidal ideation, participants: 2 (2.5) n (%)
25 mg group
  Patients with TEAEs of suicidal ideation, suicidal behaviour and intentional self-injury: seven
  Patients with TESAEs of suicidal ideation, suicidal behaviour and intentional self-injury: four
25 mg, 10 mg, 1 mg groups, blinded remote rater
  MADRS item 10 (suicidality) scores post-administration, comparison of groups: no difference between the three groups
Overall (N = 233)
  Any TESAE, participants: 12 (5.2) n (%)
  TEAE Abdominal pain upper, participants: 7 (3.0) n (%)
  TEAE Anxiety, participants: 23 (9.9) n (%)
  TEAE Back pain, participants: 9 (3.9) n (%)
  TEAE Depressed mood, participants: 12 (5.2) n (%)
  TEAE Depression, participants: 15 (6.4) n (%)
  TEAE Dizziness, participants: 8 (3.4) n (%)
  TEAE Euphoric mood, participants: 13 (5.6) n (%)
  TEAE Fatigue, participants: 24 (10.3) n (%)
  TEAE Headache, participants: 63 (27.0) n (%)
  TEAE Insomnia, participants: 33 (14.2) n (%)
  TEAE Irritability, participants: 7 (3.0) n (%)
  TEAE Mood altered, participants: 11 (4.7) n (%)
  TEAE Myalgia, participants: 8 (3.4) n (%)
  TEAE Nausea, participants: 29 (12.4) n (%)
  TEAE Panic reaction, participants: 6 (2.6) n (%)
  TEAE Paraesthesia, participants: 8 (3.4) n (%)
  TEAE Suicidal ideation, participants: 14 (6.0) n (%)
  TEAE Thinking abnormal, participants: 4 (1.7) n (%)
  TESAE Adjustment disorder with anxiety, participants: 1 (0.4) n (%)
  TESAE Adjustment disorder with mixed anxiety and depressed mood, participants: 1 (0.4) n (%)
  TESAE Depression, participants: 1 (0.4) n (%)
  TESAE Drug withdrawal syndrome*, participants: 1 (0.4) n (%)
  TESAE Hospitalisation, participants: 1 (0.4) n (%)
  TESAE Intentional self-injury, participants: 5 (2.1) n (%)
  TESAE Suicidal behaviour, participants: 3 (1.3) n (%)
  TESAE Suicidal ideation, participants: 4 (1.7) n (%)
All groups
  Patients with TEAEs of suicidal ideation, suicidal behaviour and intentional self-injury: 17 patients
  Patients with TESAEs of suicidal ideation, suicidal behaviour and intentional self-injury: nine
  TEAEs being mild or moderate in severity: more than 90%
  TEAEs occurring on the day of administration that resolved on the same day or the day after: 77.4%
  TEAEs of suicidal ideation, suicidal behaviour and intentional self-injury: 27 events
  TESAEs of suicidal ideation, suicidal behaviour and intentional self-injury: 14 events
  TESAEs of suicidality/self-injury that occurred at least one week after the session: 10 events out of 14
All groups (233 patients)
  Participants reported at least one TEAE: 179 participants
All patients reporting these events were non responders at event onset
  Timing of suicidal behaviours after the psilocybin therapy session: occurred at least one month after the psilocybin therapy session
Single dose 1, 10 or 25 mg
  Tolerability: generally well tolerated
Started on the day of administration
  TEAEs involving hallucination (25 mg and 10 mg groups only) and illusion (all groups): onset and resolution: resolved on the same day
